Legend:
Experiment in all cases: NCI one-dose SRB assay
HS 578T = assay type: cell-based; details: Homo sapiens, HS 578T (Breast Cancer), 1.00E-5 Molar, read-out: Growth Percent
Outline: (§1)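 Using the US-NCI one-dose format, the sixty cancer cell lines received compound at 10^−5 M, and sulforhodamine B colorimetry was used to assess growth and viability.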

ACHN = assay type: cell-based; details: Homo sapiens, ACHN (Renal Cancer), 1.00E-5 Molar, read-out: Growth Percent
Outline: as §1

MOLT-4 = assay type: cell-based; details: Homo sapiens, MOLT-4 (Leukemia), 1.00E-5 Molar, read-out: Growth Percent
Outline: as §1

UACC-257 = assay type: cell-based; details: Homo sapiens, UACC-257 (Melanoma), 1.00E-5 Molar, read-out: Growth Percent
Outline: as §1

SNB-19 = assay type: cell-based; details: Homo sapiens, SNB-19 (CNS Cancer), 1.00E-5 Molar, read-out: Growth Percent
Outline: as §1

TK-10 = assay type: cell-based; details: Homo sapiens, TK-10 (Renal Cancer), 1.00E-5 Molar, read-out: Growth Percent
Outline: as §1

NCI/ADR-RES = assay type: cell-based; details: Homo sapiens, NCI/ADR-RES (Ovarian Cancer), 1.00E-5 Molar, read-out: Growth Percent
Outline: as §1

HCC-2998 = assay type: cell-based; details: Homo sapiens, HCC-2998 (Colon Cancer), 1.00E-5 Molar, read-out: Growth Percent
Outline: as §1

SW-620 = assay type: cell-based; details: Homo sapiens, SW-620 (Colon Cancer), 1.00E-5 Molar, read-out: Growth Percent
Outline: as §1

T-47D = assay type: cell-based; details: Homo sapiens, T47D, T-47D (Breast Cancer), 1.00E-5 Molar, read-out: Growth Percent
Outline: as §1

HCT-15 = assay type: cell-based; details: Homo sapiens, HCT-15 (Colon Cancer), 1.00E-5 Molar, read-out: Growth Percent
Outline: as §1

PC-3 = assay type: cell-based; details: Homo sapiens, PC-3 (Prostate Cancer), 1.00E-5 Molar, read-out: Growth Percent
Outline: as §1

COLO 205 = assay type: cell-based; details: Homo sapiens, COLO 205 (Colon Cancer), 1.00E-5 Molar, read-out: Growth Percent
Outline: as §1

MDA-MB-435 = assay type: cell-based; details: Homo sapiens, MDA-MB-435 (Melanoma), 1.00E-5 Molar, read-out: Growth Percent
Outline: as §1

RXF 393 = assay type: cell-based; details: Homo sapiens, RXF 393 (Renal Cancer), 1.00E-5 Molar, read-out: Growth Percent
Outline: as §1

SK-MEL-2 = assay type: cell-based; details: Homo sapiens, SK-MEL-2 (Melanoma), 1.00E-5 Molar, read-out: Growth Percent
Outline: as §1

HL-60(TB) = assay type: cell-based; details: Homo sapiens, HL-60(TB) (Leukemia), 1.00E-5 Molar, read-out: Growth Percent
Outline: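 NCI-60 one-dose protocol: compound at 10^−5 M; growth and viability quantified with SRB dye.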

A549/ATCC = assay type: cell-based; details: Homo sapiens, A549/ATCC (Non-Small Cell Lung Cancer), 1.00E-5 Molar, read-out: Growth Percent
Outline: as §1

HT29 = assay type: cell-based; details: Homo sapiens, HT-29, HT29 (Colon Cancer), 1.00E-5 Molar, read-out: Growth Percent
Outline: as §1

HOP-62 = assay type: cell-based; details: Homo sapiens, HOP-62 (Non-Small Cell Lung Cancer), 1.00E-5 Molar, read-out: Growth Percent
Outline: as §1

K-562 = assay type: cell-based; details: Homo sapiens, K562, K-562 (Leukemia), 1.00E-5 Molar, read-out: Growth Percent
Outline: as §1

MDA-MB-231/ATCC = assay type: cell-based; details: Homo sapiens, MDA-MB-231/ATCC (Breast Cancer), 1.00E-5 Molar, read-out: Growth Percent
Outline: as §1

CCRF-CEM = assay type: cell-based; details: Homo sapiens, CCRF-CEM (Leukemia), 1.00E-5 Molar, read-out: Growth Percent
Outline: as §1

SK-OV-3 = assay type: cell-based; details: Homo sapiens, SK-OV-3 (Ovarian Cancer), 1.00E-5 Molar, read-out: Growth Percent
Outline: as §1

NCI-H522 = assay type: cell-based; details: Homo sapiens, NCI-H522 (Non-Small Cell Lung Cancer), 1.00E-5 Molar, read-out: Growth Percent
Outline: as §1

NCI-H322M = assay type: cell-based; details: Homo sapiens, NCI-H322M (Non-Small Cell Lung Cancer), 1.00E-5 Molar, read-out: Growth Percent
Outline: as §1

U251 = assay type: cell-based; details: Homo sapiens, U-251, U251 (CNS Cancer), 1.00E-5 Molar, read-out: Growth Percent
Outline: as §1

CAKI-1 = assay type: cell-based; details: Homo sapiens, CAKI-1 (Renal Cancer), 1.00E-5 Molar, read-out: Growth Percent
Outline: as §1

NCI-H226 = assay type: cell-based; details: Homo sapiens, NCI-H226 (Non-Small Cell Lung Cancer), 1.00E-5 Molar, read-out: Growth Percent
Outline: as §1

M14 = assay type: cell-based; details: Homo sapiens, M14 (Melanoma), 1.00E-5 Molar, read-out: Growth Percent
Outline: as §1

SR = assay type: cell-based, human; details: SR (Leukemia), 1.00E-5 Molar
Method: First, all diamide-based benzenesulfonamides herein reported 5a–h were screened for their antitumor activity at one dose (10^−5 M) assay against a panel of sixty cancer cell lines through the National Cancer Institute (NCI) Developmental Therapeutic Program (www.dtp.nci.nih.gov), according to US-NCI protocol. The cell growth and cell viability were evaluated using the sulforhodamine B (SRB) colorimetric assay.
This assay was carried out according to the protocol of the Drug Evaluation Branch, NCI, Bethesda. The cell growth and cell viability were evaluated using the sulforhodamine B (SRB) colorimetric assay, as reported earlier.

Structure (SMILES) | activity at 10 µM (HS 578T) | activity at 10 µM (ACHN) | activity at 10 µM (MOLT-4) | activity at 10 µM (UACC-257) | activity at 10 µM (SNB-19) | activity at 10 µM (TK-10) | activity at 10 µM (NCI/ADR-RES) | activity at 10 µM (HCC-2998) | activity at 10 µM (SW-620) | activity at 10 µM (T-47D) | activity at 10 µM (HCT-15) | activity at 10 µM (PC-3) | activity at 10 µM (COLO 205) | activity at 10 µM (MDA-MB-435) | activity at 10 µM (RXF 393) | activity at 10 µM (SK-MEL-2) | activity at 10 µM (HL-60(TB)) | activity at 10 µM (A549/ATCC) | activity at 10 µM (HT29) | activity at 10 µM (HOP-62) | further results
NS(=O)(=O)c1ccc(NC(=O)C(=Cc2ccc(Br)cc2)NC(=O)c2ccccc2)cc1 [Compound 5c, N-(1-(4-Bromophenyl)-3-oxo-3-((4-sulfamoylphenyl)amino)prop-1-en-2-yl)benzamide] | 93.9% | 100% | 89.5% | 105% | 95.1% | 102% | 102% | 103% | 104% | 92.1% | 92.5% | 92.7% | 105% | 95% | 95.8% | 97.3% | 96.9% | 102% | 89.1% | 104% | activity at 10 µM (K-562): 92.8%; activity at 10 µM (MDA-MB-231/ATCC): 105%; activity at 10 µM (CCRF-CEM): 99.4%; activity at 10 µM (SK-OV-3): 101%; activity at 10 µM (NCI-H522): 87.9%; activity at 10 µM (NCI-H322M): 100%; activity at 10 µM (U251): 93.1%; activity at 10 µM (CAKI-1): 91%; activity at 10 µM (NCI-H226): 97.2%; activity at 10 µM (M14): 109%; Growth Percent (SR): 88.11%
Cc1ccc(C=C(NC(=O)c2ccccc2)C(=O)Nc2ccc(S(N)(=O)=O)cc2)cc1 [Compound 5d, N-(3-Oxo-3-((4-sulfamoylphenyl)amino)-1-(p-tolyl)prop-1-en-2-yl)benzamide] | 117% | 108% | 81.3% | 105% | 103% | 104% | 99.3% | 100% | 113% | 101% | 90.6% | 96.5% | 117% | 92.9% | 116% | 102% | 88.5% | 95.4% | 103% | 114% | activity at 10 µM (K-562): 94.6%; activity at 10 µM (MDA-MB-231/ATCC): 104%; activity at 10 µM (CCRF-CEM): 102%; activity at 10 µM (SK-OV-3): 100%; activity at 10 µM (NCI-H522): 89.9%; activity at 10 µM (NCI-H322M): 108%; activity at 10 µM (U251): 99%; activity at 10 µM (CAKI-1): 93.9%; activity at 10 µM (NCI-H226): 105%; activity at 10 µM (M14): 110%; Growth Percent (SR): 85.23%
COc1ccc(C=C(NC(=O)c2ccccc2)C(=O)Nc2ccc(S(N)(=O)=O)cc2)cc1 [Compound 5e, N-(1-(4-Methoxyphenyl)-3-oxo-3-((4-sulfamoylphenyl)amino)prop-1-en-2-yl)benzamide] | 102% | 102% | 104% | 102% | 100% | 107% | 106% | 106% | 101% | 101% | 104% | 98.9% | 110% | 97.5% | 110% | 102% | 99.2% | 103% | 100% | 104% | activity at 10 µM (K-562): 101%; activity at 10 µM (MDA-MB-231/ATCC): 110%; activity at 10 µM (CCRF-CEM): 106%; activity at 10 µM (SK-OV-3): 97.1%; activity at 10 µM (NCI-H522): 90.5%; activity at 10 µM (NCI-H322M): 110%; activity at 10 µM (U251): 99.4%; activity at 10 µM (CAKI-1): 98.1%; activity at 10 µM (NCI-H226): 105%; activity at 10 µM (M14): 107%; Growth Percent (SR): 88.45%

From paper PMC6566410, “Novel Diamide-Based Benzenesulfonamides as Selective Carbonic Anhydrase IX Inhibitors Endowed with Antitumor Activity: Synthesis, Biological Evaluation and In Silico Insights” (International Journal of Molecular Sciences, 2019)
